Measurements published in patent US9586952B2, “Polycyclic estrogen receptor modulators and uses thereof” (SERAGON PHARMACEUTICALS, INC., priority 2013, dated 2017).

Assays:
MCF-7 cells = test: MCF7 Viability Assay (Breast Cancer Cell Viability Assay); assay type: cell-based; conditions: 5 days' compound exposure, CellTiter-Glo; for IC50: Homo sapiens, MCF7, 120 h
Method in brief: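 Cells (320 per well, RPMI with 10% FBS and 20 mM HEPES) adhered overnight, then were exposed 5 days to an eleven-point semilog compound series, 0.3-0.000003 μM final. Viability read by CellTiter-Glo luminescence, background-subtracted, expressed as % of untreated cells.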

ER-α = target: T1, ER-α (Homo sapiens, UniProt P03372); test: Breast Cancer Cell ER-α In Cell Western Assay (SP1); assay type: cell-based; conditions: MCF-7 cells, 4 or 24 hr post compound addition, SP1 antibody; for Emax: MCF7, read-out: ER-α In Cell Western Assay (SP1) Max Response; for DC50: read-out: ER-α In Cell Western Assay (SP1) IC50
T1 construct: endogenous in cells; host or cells: MCF-7
T1 sequence (P03372 1-595): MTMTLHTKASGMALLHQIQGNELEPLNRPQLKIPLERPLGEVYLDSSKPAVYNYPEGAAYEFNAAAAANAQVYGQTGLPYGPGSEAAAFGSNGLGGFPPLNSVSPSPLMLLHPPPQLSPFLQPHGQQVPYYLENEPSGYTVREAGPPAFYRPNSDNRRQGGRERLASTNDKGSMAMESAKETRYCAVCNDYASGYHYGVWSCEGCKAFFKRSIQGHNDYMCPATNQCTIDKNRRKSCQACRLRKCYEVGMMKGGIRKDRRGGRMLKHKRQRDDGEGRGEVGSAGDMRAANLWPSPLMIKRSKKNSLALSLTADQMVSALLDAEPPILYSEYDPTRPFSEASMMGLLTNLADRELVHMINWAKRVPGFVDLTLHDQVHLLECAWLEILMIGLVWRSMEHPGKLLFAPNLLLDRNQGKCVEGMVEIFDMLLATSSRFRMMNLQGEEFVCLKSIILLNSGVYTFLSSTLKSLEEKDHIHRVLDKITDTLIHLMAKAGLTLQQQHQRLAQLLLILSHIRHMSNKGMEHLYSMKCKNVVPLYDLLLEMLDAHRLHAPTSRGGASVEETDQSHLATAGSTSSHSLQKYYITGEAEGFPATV
Method in brief: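 MCF-7 cells in RPMI with 10% charcoal-stripped FBS received an eleven-point semilog series, 0.3-0.000003 μM final, for 4 or 24 hr. After fixation, ER-α stained with SP1 antibody and IRDye 800 CW, DNA with DRAQ5; % ER = 800/700 nm intensity ratio relative to untreated cells.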

Row | IC50 (MCF-7 cells) | Emax (ER-α) | DC50 (ER-α) | SMILES | MCF7 Viability Assay Max Response (MCF-7 cells)
1 | > 100 nM | ≥ 40% | > 100 nM | CC1CCN(c2ccc(/C(=C(/c3ccccc3)C3CCC3)c3ccc(/C=C/C(=O)O)cc3)cc2)CC1 [Example 64, (E)-3-(4-((E)-2-Cyclobutyl-1-(4-(4-methylpiperidin-1-yl)phenyl)-2-phenylvinyl)phenyl)acrylic acid] | ++ (++ = a single % value ≧ 40%)
2 | ≤ 100 nM | ≥ 40% | ≤ 100 nM | O=C(O)/C=C/c1ccc(/C(=C(\c2ccccc2)C2CCC2)c2ccc(N3CCNCC3)cc2)cc1 [Example 65, (E)-3-(4-((E)-2-Cyclobutyl-2-phenyl-1-(4-(piperazin-1-yl)phenyl)vinyl)phenyl)acrylic acid] | ++ (++ = a single % value ≧ 40%)
3 | ≤ 100 nM | ≥ 40% | ≤ 100 nM | O=C(O)/C=C/c1ccc(/C(=C(\c2ccccc2)C2CCC2)c2ccc(-c3ccncc3)cc2)cc1 [Example 66, (E)-3-(4-((E)-2-Cyclobutyl-2-phenyl-1-(4-(pyridin-4-yl)phenyl)vinyl)phenyl)acrylic acid] | ++ (++ = a single % value ≧ 40%)
4 | ≤ 100 nM | ≥ 40% | ≤ 100 nM | O=C(O)/C=C/c1ccc(/C(=C(\c2ccccc2)C2CCC2)c2ccc(-c3cnn(CCO)c3)cc2)cc1 [Example 67, (E)-3-(4-((E)-2-Cyclobutyl-1-(4-(1-(2-hydroxyethyl)-1H-pyrazol-4-yl)phenyl)-2-phenylvinyl)phenyl)acrylic acid] | ++ (++ = a single % value ≧ 40%)
5 | ≤ 100 nM | ≥ 40% | ≤ 100 nM | Cc1cscc1/C(=C(\c1ccc(/C=C/C(=O)O)cc1)c1ccc(-c2cnn(CCO)c2)cc1)C1CCC1 [Example 68, (E)-3-(4-((E)-2-Cyclobutyl-1-(4-(1-(2-hydroxyethyl)-1H-pyrazol-4-yl)phenyl)-2-(4-methylthiophen-3-yl)vinyl)phenyl)acrylic acid] | ++ (++ = a single % value ≧ 40%)
6 | ≤ 100 nM | ≥ 40% | ≤ 100 nM | O=C(O)/C=C/c1ccc(/C(=C(\c2ccc(F)cc2Cl)C2CCC2)c2ccc(-c3cnn(CCO)c3)cc2)cc1 [Example 69, (E)-3-(4-((E)-2-(2-Chloro-4-fluorophenyl)-2-cyclobutyl-1-(4-(1-(2-hydroxyethyl)-1H-pyrazol-4-yl)phenyl)vinyl)phenyl)acrylic acid] | ++ (++ = a single % value ≧ 40%)
7 | ≤ 100 nM | ≥ 40% | ≤ 100 nM | CN(C)CCn1cc(-c2ccc(/C(=C(/c3ccccc3)C3CCC3)c3ccc(/C=C/C(=O)O)cc3)cc2)cn1 [Example 70, (E)-3-(4-((E)-2-Cyclobutyl-1-(4-(1-(2-(dimethylamino)ethyl)-1H-pyrazol-4-yl)phenyl)-2-phenylvinyl)phenyl)acrylic acid] | ++ (++ = a single % value ≧ 40%)
8 | ≤ 100 nM | ≥ 40% | ≤ 100 nM | Fc1ccc(/C(=C(\c2ccc(/C=C/c3nn[nH]n3)cc2)c2ccc(-c3cn[nH]c3)cc2)C2CCC2)c(Cl)c1 [Example 71, 5-((E)-4-((E)-1-(4-(1H-Pyrazol-4-yl)phenyl)-2-(2-chloro-4-fluorophenyl)-2-cyclobutylvinyl)styryl)-2H-tetrazole] | ++ (++ = a single % value ≧ 40%)
